{"source": "patent US9556256B2", "about": "“Inhibition of cancer metastasis” (The Board of Trustees of The University of Arkansas, priority 2006, dated 2017)", "key": {"MCPG": {"tested_on": "MCPG", "test": "Real-time PCR gene expression in MCF-7 cells after 5azadC: MCPG", "type": "cell-based, human", "conditions": "for Relative expression level of MCPG compared with no 5azadC: MCF-7 cells", "experimental": "(§1) Real-time PCR was conducted to quantify mRNAs of five genes in four different human breast cancer tumor lines. The assayed genes were Syndecan-1 (SDC-1), Neuropilin-1 (NRP-1), Syndecan-4 (SDC-4), MCSP, and estrogen receptor 1. The tumor lines were MCF7, MDA-MD-468 (MDA-468), MDA-MB-231 (MDA-231), and MDA-MET. MCF-7 and MDA-468 are less aggressive. MDA-231 is an aggressive cell line, and MDA-MET is a subline of MDA-231 that metastasizes to bone. The quantity of each mRNA was assayed in comparison to 18s RNA. NRP-1, SDC-4 and MCSP expression was higher in the two more aggressive cell lines than in either of the two less aggressive cell lines. […] MCF-7 and MDA-468 are epithelial-like, while both MDA-231 and MDA-MET cells are mesenchymal type. Thus, high expression of NRP-1, MCSP and SDC-4 may be related to an epithelial to mesenchymal transition, which is a phenotypic event associated with more metastasis and aggressive growth.\n(§2) In this experiment, gene expression levels were assayed by real-time PCR and comparison to 18S RNA levels. The dependence of gene expression on methylation levels was tested by treating tumor cells with varying levels of 5-aza-2′-deoxycytidine (5azadC), which is a demethylating agent (Table 6). Methylation of CpG islands is a well-known mechanism of gene control. Methylation decreases expression of genes whose promoters are methylated. The expression of NRP-1, CHST11, and MCPG each increased with increasing 5azadC concentration, which indicates they are under methylation control, with increased methylation repressing expression of the genes. Urokinase (uPA) was used as a positive control."}, "Synd-4": {"tested_on": "Synd-4", "test": "Real-time PCR gene expression in MCF-7 cells after 5azadC: Synd-4", "type": "cell-based, human", "conditions": "for Relative expression level of Synd-4 compared with no 5azadC: MCF-7 cells", "experimental": "as §1, §2"}, "uPA": {"tested_on": "uPA", "test": "Real-time PCR gene expression in MCF-7 cells after 5azadC: uPA", "type": "cell-based, human", "conditions": "positive control gene", "experimental": "as §1, §2"}, "CHST11": {"tested_on": "CHST11", "test": "Real-time PCR gene expression in MCF-7 cells after 5azadC: CHST11", "type": "cell-based, human", "conditions": "for Relative expression level of CHST11 compared with no 5azadC: MCF-7 cells", "experimental": "as §1, §2"}, "NRP-1": {"tested_on": "NRP-1", "test": "Real-time PCR gene expression in MCF-7 cells after 5azadC: NRP-1", "type": "cell-based, human", "conditions": "for Relative expression level of NRP-1 compared with no 5azadC: MCF-7 cells", "experimental": "as §1, §2"}, "P-Selectin": {"biological_target": "P-Selectin (Mus musculus, UniProt Q01102)", "sequence (Q01102 with tags, fused parts or gaps limits assumed)": "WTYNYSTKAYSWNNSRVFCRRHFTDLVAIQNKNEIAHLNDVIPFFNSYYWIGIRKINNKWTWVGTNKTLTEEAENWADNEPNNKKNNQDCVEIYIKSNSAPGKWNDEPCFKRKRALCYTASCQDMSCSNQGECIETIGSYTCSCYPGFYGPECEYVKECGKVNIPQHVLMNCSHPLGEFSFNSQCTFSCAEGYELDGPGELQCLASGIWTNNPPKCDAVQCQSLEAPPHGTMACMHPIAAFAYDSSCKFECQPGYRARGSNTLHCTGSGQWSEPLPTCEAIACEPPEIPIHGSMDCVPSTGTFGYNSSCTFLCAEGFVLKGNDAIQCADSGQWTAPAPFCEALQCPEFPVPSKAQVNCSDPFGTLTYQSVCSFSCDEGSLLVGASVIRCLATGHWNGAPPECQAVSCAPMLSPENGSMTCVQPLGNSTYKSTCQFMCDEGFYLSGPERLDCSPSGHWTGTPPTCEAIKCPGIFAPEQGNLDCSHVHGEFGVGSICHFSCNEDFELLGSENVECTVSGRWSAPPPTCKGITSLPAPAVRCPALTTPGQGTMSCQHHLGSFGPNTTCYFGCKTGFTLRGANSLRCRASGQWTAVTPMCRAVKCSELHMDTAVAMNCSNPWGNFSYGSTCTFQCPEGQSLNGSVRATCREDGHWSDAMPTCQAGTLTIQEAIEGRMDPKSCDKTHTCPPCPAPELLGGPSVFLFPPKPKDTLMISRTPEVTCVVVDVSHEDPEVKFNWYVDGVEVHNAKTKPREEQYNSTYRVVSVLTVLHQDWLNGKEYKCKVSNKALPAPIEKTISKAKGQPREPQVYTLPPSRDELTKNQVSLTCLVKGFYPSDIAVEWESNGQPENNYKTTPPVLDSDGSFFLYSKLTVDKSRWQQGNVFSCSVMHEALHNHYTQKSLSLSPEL", "test": "P-Selectin binding to 4T1 cells by flow cytometry", "conditions": "for P-Selectin binding to 4T1 cells after treatment of the cells: cells pre-treated with the agent; for Inhibition of P-Selectin binding to 4T1 cells: P-Selectin pre-treated with chondroitin sulfate, various concentrations", "method": "Unless specified otherwise, flow cytometry was conducted as follows. Acquisition and analysis of data was performed on an EPICS®™ XL™.flow cytometer (Beckman Coulter, Inc., Fullerton, Calif.). Cells were passed to new flasks 24 hours before measuring lectin binding. The subconfluent monolayer of cells was detached with Cellstripper (Mediatech, Inc. Herndon, Va.) and washed with Dulbecco's phosphate buffered saline with Ca++ and Mg++ (Mediatech, Inc. Herndon, Va.). Cells were transferred to FACS buffer (Dulbecco's Phosphate Buffered Saline, 1% BSA and 0.1% Sodium Azide), counted and diluted to ˜1-2×10^6/ml. Monoclonal antibodies were added to a final concentration of 10 μg/ml. Cells were incubated on ice for 30 minutes, washed twice with FACS buffer, before the addition of FITC-conjugated streptavidin (2 μg/ml) for lectin analysis or FITC-conjugated goat anti-mouse immunoglobulin for monoclonal analysis. Cells were then washed and fixed with paraformaldehyde, before analysis by flow cytometry.\nRecombinant E- and P-Selectin/Fc (human IgG) were purchased from R&D systems, Minneapolis, Minn. These recombinant molecules and FITC-conjugated anti-human IgG were used for binding analyses in flow cytometry assays. Human and murine recombinant selectins were used for human and murine cells, respectively.\nBinding of recombinant P-Selectin to cells was examined after treatment with heparinase and chondroitinase ABC or in the presence of various concentrations of heparin and chondroitin sulfate A, B, C, and E (Seikagaku America, Falmouth, Mass.)."}, "tumor cells": {"tested_on": "tumor cells", "conditions": "clinically relevant dose; reference 8; cited from earlier work"}, "4T1 cells [1]": {"tested_on": "4T1 cells", "test": "Binding of thrombin-treated Calcein-AM-labeled mouse platelets to 4T1 cells", "type": "cell-based", "conditions": "100 U/ml final concentration", "experimental": "To examine if heparin can block the interaction of mouse platelets with tumor cells, 4T1 cells were mixed with Calcein-AM-labeled mouse platelets in the presence of mouse thrombin with or without heparin. Mouse thrombin was added to stimulate relocation of P-Selectin to platelet surface and tumor cells were then analyzed by flow cytometry for Calcein-AM staining, indicating platelet attachment. […] Blood was collected into sodium citrate (0.38% w/v) from naive mice and platelets were isolated from plasma by centrifugation. Platelet were washed and labeled with 5 μM final Calcein-AM (Molecular Probes, Eugene, Oreg., USA) for 15 minutes at 37° C. Platelets were then washed and incubated with 1 U/ml thrombin (Haematologic Technologies Inc, Essex Junction, Vt.) at 37° C. for 10 minutes. Heparin (Baxter Healthcare Corp., Deerfield, Ill., 100 U/ml final concentration) was then added to the mixture of platelets and thrombin, and incubated with 4T1 cells in flow cytometry tubes, for 15 minutes at room temperature, then acquired and analyzed by flow cytometry."}, "4T1 cells [2]": {"tested_on": "4T1 cells", "test": "Spontaneous lung metastasis of 4T1 tumors in BALB/c mice after heparin, clonogenic assay", "type": "in vivo, mouse", "conditions": "100 units 30 minutes before tumor cell inoculation; 26 days after inoculation", "experimental": "BALB/c female mice (6-8 weeks old) were purchased from Harlan (Indianapolis, Ind.). Tumors were established as described earlier (9). Briefly, each mouse was inoculated subcutaneously in the abdominal mammary gland with 5×10^4 4 T1 cells. To establish a functional correlation between P-Selectin ligand expression of 4T1 cells and their metastatic ability in vivo, we injected mice with 100 units of heparin 30 minutes before tumor cell inoculation. Mice were sacrificed 26 days after tumor inoculation, lungs were harvested and metastatic cells were detected by clonogenic assay. […] All mice that were injected with PBS as control developed lung metastasis."}, "4T1 cells [3]": {"tested_on": "4T1 cells", "test": "Lung colonies in mice with 4T1 fat pad tumors injected daily with CS", "type": "in vivo, mouse", "conditions": "30 days after transplant", "experimental": "FIG. 20. Chondroitin sulfate inhibits metastasis. Mice were injected with 4T1 cells into fact pads. After tumors were palpable (3-4 days after transplant) they were daily injected with CS intraperitoneally (ip) or subcutaneously (sc). Micer were sacrificed 30 days after transplant and lung colonies were quantified. Saline injection was used as a control. Comparisons were made between groups treated with CS and the saline group as control. NS, not significant. Average and SD with three animals per group is shown.\nMice were injected with 4T1 cells into fat pads. After tumors were palpable (3-4 days after transplant) the mice were daily injected with CS intraperitoneally (ip) or subcutaneously (sc). The mice were sacrificed 30 days after transplant and lung colonies were quantified. CS was dissolved in saline for injection. Saline control injection by either sc or ip routes produced similar results."}}, "note": "“Also recorded” adds a separate entry of the source."}
{"molecule": "Nc1ncn([C@H]2C[C@H](O)[C@@H](CO)O2)c(=O)n1", "note": "[5azadC, 5-aza-2′-deoxycytidine]", "values": [{"measurement": "Relative expression level of MCPG compared with no 5azadC", "setting": "MCPG; 0.5 μM", "value": 1.3}, {"measurement": "Relative expression level of MCPG compared with no 5azadC", "setting": "MCPG; 1 μM", "value": 1.4}, {"measurement": "Relative expression level of MCPG compared with no 5azadC", "setting": "MCPG; 5 μM", "value": 1.7}, {"measurement": "Relative expression level of MCPG compared with no 5azadC", "setting": "MCPG; 20 μM", "value": 2.1}, {"measurement": "Expression of MCPG with increasing 5azadC concentration", "setting": "MCPG; trend over 0.5-20 μM", "value": "increased"}, {"measurement": "Relative expression level of Synd-4 compared with no 5azadC", "setting": "Synd-4; 0.5 μM", "value": 0.7}, {"measurement": "Relative expression level of Synd-4 compared with no 5azadC", "setting": "Synd-4; 1 μM", "value": 0.5}, {"measurement": "Relative expression level of Synd-4 compared with no 5azadC", "setting": "Synd-4; 5 μM", "value": 0.8}, {"measurement": "Relative expression level of Synd-4 compared with no 5azadC", "setting": "Synd-4; 20 μM", "value": 0.6}, {"measurement": "Syndecan-4 expression with 5azadC treatment", "setting": "Synd-4; trend over 0.5-20 μM", "value": "decreased or remained approximately constant"}, {"measurement": "Relative expression level of uPA compared with no 5azadC", "setting": "uPA; 0.5 μM", "value": 2.2}, {"measurement": "Relative expression level of uPA compared with no 5azadC", "setting": "uPA; 1 μM", "value": 2.9}, {"measurement": "Relative expression level of uPA compared with no 5azadC", "setting": "uPA; 5 μM", "value": 3.2}, {"measurement": "Relative expression level of uPA compared with no 5azadC", "setting": "uPA; 20 μM", "value": 3.9}, {"measurement": "Relative expression level of CHST11 compared with no 5azadC", "setting": "CHST11; 0.5 μM", "value": 1.34}, {"measurement": "Relative expression level of CHST11 compared with no 5azadC", "setting": "CHST11; 1 μM", "value": 1.68}, {"measurement": "Relative expression level of CHST11 compared with no 5azadC", "setting": "CHST11; 5 μM", "value": 3.7}, {"measurement": "Relative expression level of CHST11 compared with no 5azadC", "setting": "CHST11; 20 μM", "value": 4.00}, {"measurement": "Expression of CHST11 with increasing 5azadC concentration", "setting": "CHST11; trend over 0.5-20 μM", "value": "increased"}, {"measurement": "Relative expression level of NRP-1 compared with no 5azadC", "setting": "NRP-1; 0.5 μM", "value": 1.04}, {"measurement": "Relative expression level of NRP-1 compared with no 5azadC", "setting": "NRP-1; 1 μM", "value": 1.50}, {"measurement": "Relative expression level of NRP-1 compared with no 5azadC", "setting": "NRP-1; 5 μM", "value": 1.72}, {"measurement": "Relative expression level of NRP-1 compared with no 5azadC", "setting": "NRP-1; 20 μM", "value": 1.71}, {"measurement": "Expression of NRP-1 with increasing 5azadC concentration", "setting": "NRP-1; trend over 0.5-20 μM", "value": "increased"}]}
{"molecule": "O=C(O)CN(CCN(CC(=O)O)CC(=O)O)CC(=O)O", "note": "[EDTA]", "values": [{"measurement": "P-Selectin reactivity with 4T1 cells in presence of EDTA", "setting": "P-Selectin; high concentrations (20 and 40 mM)", "value": "inhibited P-Selectin reactivity only at high concentrations"}, {"measurement": "P-Selectin reactivity with 4T1 cells in presence of EDTA", "setting": "P-Selectin; low concentration (10 mM)", "value": "not blocked"}]}
{"molecule": "[Na+].[O-][Cl+2]([O-])[O-]", "note": "[sodium chlorate]", "values": [{"measurement": "P-Selectin binding to 4T1 cells after treatment of the cells", "setting": "P-Selectin", "value": "elimination of P-Selectin binding in a majority of the cells"}]}
{"molecule": "Heparin", "values": [{"measurement": "Lung metastasis in experimental models", "setting": "tumor cells", "value": "inhibited lung metastasis"}, {"measurement": "Binding of thrombin treated platelets to tumor cells", "setting": "4T1 cells [1]", "value": "reduced"}, {"measurement": "Effective dose for inhibition of P-Selectin binding, as concentration", "setting": "P-Selectin; corresponds to 120 units", "value": 0.7, "unit": "mg/mL"}, {"measurement": "Inhibition of P-Selectin binding to cells", "setting": "P-Selectin; sLex-Neg 4T1 cell variant, recombinant P-Selectin pre-incubated with 0.7-120 Units heparin", "value": "efficiently inhibited P-Selectin binding to cells in a dose dependent manner"}, {"measurement": "Effective dose for inhibition of P-Selectin binding", "setting": "P-Selectin; sLex-Neg 4T1 cells, FIG. 10", "value": 120, "unit": "units"}, {"measurement": "Mice with complete absence of metastases in lung", "setting": "4T1 cells [2]", "value": "six mice out of total of seven"}, {"measurement": "Number of mice positive for established lung metastases, Positive (total)", "setting": "4T1 cells [2]", "value": "*1 (7)"}]}
{"molecule": "Neuraminidase: Neuraminidase (Vibrio cholerae) from Sigma, used at 50 mU/ml", "values": [{"measurement": "P-Selectin binding to 4T1 cells after treatment of the cells", "setting": "P-Selectin", "value": "did not change"}]}
{"molecule": "chondroitin sulfate A [CS A]", "values": [{"measurement": "Inhibition of P-Selectin binding to 4T1 cells", "setting": "P-Selectin", "value": "minimal inhibitory effects"}]}
{"molecule": "chondroitin sulfate C [CS C]", "values": [{"measurement": "Inhibition of P-Selectin binding to 4T1 cells", "setting": "P-Selectin", "value": "minimal inhibitory effects"}]}
{"molecule": "chondroitin sulfate E [CS E]", "values": [{"measurement": "Concentration giving complete inhibition of P-Selectin binding", "setting": "P-Selectin; 4T1 cells", "value": 0.5, "unit": "mg/mL"}, {"measurement": "Inhibition of P-Selectin binding to 4T1 cells", "setting": "P-Selectin", "value": "inhibited P-Selectin binding; also recorded: effectively inhibit"}]}
{"molecule": "chondroitin sulfate [CS]", "values": [{"measurement": "Metastasis (lung colonies) compared to saline control", "setting": "4T1 cells [3]; 1 mg subcutaneously daily", "value": "decreased metastasis"}, {"measurement": "Metastasis (lung colonies) compared to saline control", "setting": "4T1 cells [3]; 10 mg subcutaneously daily", "value": "decreased metastasis"}, {"measurement": "Metastasis (lung colonies) compared to saline control", "setting": "4T1 cells [3]; intraperitoneally daily", "value": "did not appear to"}]}
{"molecule": "dermatan sulfate [CS B]", "values": [{"measurement": "Concentration dependence of inhibition of P-Selectin binding", "setting": "P-Selectin; 0.005-5.0 mg/ml", "value": "inhibitory effects only at higher concentrations"}, {"measurement": "Inhibition of P-Selectin binding to 4T1 cells", "setting": "P-Selectin", "value": "inhibited P-Selectin binding"}]}
